Results on 44 molecules are retold here after patent publication US8481576B2 (Abbott GmbH & Co. KG, priority 2004, dated 2013).

Counter-ions that a name gives are not always drawn.

T1 sequence (P47898 whole entry): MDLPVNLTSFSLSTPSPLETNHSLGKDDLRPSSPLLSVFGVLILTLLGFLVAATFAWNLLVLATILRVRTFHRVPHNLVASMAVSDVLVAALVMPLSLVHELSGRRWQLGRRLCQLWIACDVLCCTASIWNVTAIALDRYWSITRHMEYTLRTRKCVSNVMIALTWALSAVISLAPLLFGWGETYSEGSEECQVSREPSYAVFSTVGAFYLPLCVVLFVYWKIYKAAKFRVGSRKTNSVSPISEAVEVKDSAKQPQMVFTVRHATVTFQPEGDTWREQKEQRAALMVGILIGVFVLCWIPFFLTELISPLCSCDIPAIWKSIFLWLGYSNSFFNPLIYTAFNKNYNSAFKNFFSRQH

This experiment addresses T1, h5-HT5A receptor (Homo sapiens, UniProt P47898).
T1 construct: expressed in transfected cells; host or cells: HEK293
Put plainly: [3H]5-CT binding assay h5-HT5A. Particulars: membranes from HEK293 cells expressing h5-HT5A, 2.5 nM [3H]5-CT; read-out: Binding affinity 5-HT5A (Ki). Here is the method: 1. [^3H]5-CT binding assay h5-HT5A
Membranes from HEK293-cells, which permanently express the h5-HT5A receptor gene, were incubated in 100 mM Tris-HCl-buffer (pH 7.7), containing 1 mM EDTA in the presence of 2.5 nM [^3H]5-CT (600 μl total volume). The total binding is defined as the binding which is observed when the membranes are incubated alone in the presence of the radioligand. The inhibition induced by the compound is determined by incubation of cell membranes in the presence of the radioligand, and of different concentrations of the compound of interest. Unspecific binding is defined by the binding of [^3H]5-CT, which is obtained by incubation of the membranes as for the total binding but in the presence of 10 μM methiothepine. Following an incubation of 75 minutes at 30° C. the membrane suspension is filtered through GF/B-filters, wrapped in 0.03% PEI, wherein a Skatron® harvest system is used. The radioactivity retained in the filter is quantified by liquid scintillation counting.
In both assays, different concentrations of the test substances are used, and the Ki or the IC50 values are determined.
In general, Ki refers to the dissociation constant of the complex between target and ligand, obtained from inhibition or displacement. With “2-(2-{[[(2,6-dimethoxybenzyl)amino](imino)methyl]amino}-1,3-thiazole-4-yl)-N-(2-methoxybenzyl)acetamide (2E)-But-2-endioate [Example 51]”, the Ki is < 0.05 µM.
Regarding `COc1ccccc1CNC(=N)Nc1nccs1` [Example 1, N-(2-methoxybenzyl)-N′-1,3-thiazole-2-ylguanidine], the Ki is < 0.05 µM.
Take `COc1cccc(OC)c1CNC(=N)Nc1nc(-c2ccccc2)cs1` [Example 2, N-(2,6-dimethoxybenzyl)-N′-(4-phenyl-1,3-thiazole-2-yl)guanidine]: the Ki is < 0.05 µM.
Take `CCc1csc(NC(=N)NCc2c(OC)cccc2OC)n1` [Example 3, N-(2,6-dimethoxybenzyl)-N′-(4-ethyl-1,3-thiazole-2-yl)-guanidine]: the Ki was < 0.05 µM.
With `Cc1ccc(C)c(CNC(=N)Nc2nccs2)c1` [Example 4, N-(2,5-dinnethylbenzyl)-N′-1,3-thiazole-2-ylguanidine hydrochloride], the Ki is 0.05 to 0.5 µM.
As to `COc1cccc(OC)c1CNC(=N)Nc1nccs1` [Example 5, N-(2,6-dimethoxybenzyl)-N′-1,3-thiazole-2-ylguanidine], the Ki was < 0.05 µM.
With `COc1cccc(Cl)c1CNC(=N)Nc1nccs1` [Example 6, N-(2-chloro-6-methoxybenzyl)-N′-1,3-thiazole-2-ylguanidine hydrochloride], the Ki is < 0.05 µM.
Regarding `N=C(NCc1ccccc1Cl)Nc1nccs1` [Example 7, N-(2-chlorobenzyl)-N′-1,3-thiazole-2-ylguanidine hydrochloride], the Ki is > 0.5 µM.
The figure for `CCOc1ccccc1CNC(=N)Nc1nccs1` [Example 8, N-(2-ethoxybenzyl)-N′-1,3-thiazole-2-ylguanidine hydrochloride] is < 0.05 µM; for `COc1cccc(F)c1CNC(=N)Nc1nccs1` [Example 9, N-(2-fluoro-6-methoxybenzyl)-N′-1,3-thiazole-2-ylguanidine] it is < 0.05 µM.
As for `Cc1ccccc1CNC(=N)Nc1nccs1` [Example 12, N-(2-methylbenzyl)-N′-1,3-thiazole-2-ylguandine], the Ki was > 0.5 µM.
On to `N=C(NCc1cccc(Cl)c1)Nc1nccs1` [Example 13, N-(3-chlorobenzyl)-N′-1,3-thiazole-2-ylguanidine hydrochloride], for which the Ki is > 0.5 µM.
As for `COc1cccc(CNC(=N)Nc2nccs2)c1` [Example 14, N-(3-methoxybenzyl)-N′-1,3-thiazole-2-ylguanidine hydrochloride], the inhibition constant (Ki) is 0.05 to 0.5 µM.
With `COc1ccc(CNC(=N)Nc2nccs2)cc1` [Example 15, N-(4-methoxybenzyl)-N′-1,3-thiazole-2-ylguanidine], the inhibition constant Ki was > 0.5 µM.
Consider `COc1ccccc1CCNC(=N)Nc1nccs1` [Example 16, N-[2-(2-methoxyphenyl)ethyl]-N′-1,3-thiazole-2-ylguanidine hydrochloride], for which the Ki was > 0.5 µM.
The figure for `N=C(NCc1ccccc1OCc1ccccc1)Nc1nccs1` [Example 17, N-[2-(benzyloxy)benzyl]-N′-1,3-thiazole-2-ylguanidine] is 0.05 to 0.5 µM; for `N=C(NCc1ccccc1C(F)(F)F)Nc1nccs1` [Example 18, N-1,3-thiazole-2-yl-N′[2-(trifluoromethyl)benzyl]guanidine] it is > 0.5 µM.
For `COc1cccc(OC)c1CNC(=N)Nc1nc(-c2cc(C(F)(F)F)cc(C(F)(F)F)c2)cs1` [Example 19, N-{4-[3,5-bis(trifluoromethyl)phenyl]-1,3-thiazole-2-yl}-N′-(2,6-dimethoxybenzyl)guanidine hydrobromide] the value was 0.05 to 0.5 µM; for `COc1ccccc1C(=O)NC(=N)Nc1nccs1` [Example 20, N-[Imino(1,3-thiazole-2-ylamino)methyl]-2-methoxybenzamide], > 0.5 µM; for `COc1cccc(OC)c1CNC(=N)Nc1nc(-c2cc(Cl)ccc2Cl)cs1` [Example 21, N-[4-(2,5-dichlorophenyl)-1,3-thiazole-2-yl]-N′-(2,6-dimethoxybenzyl)guanidine hydrobromide], < 0.05 µM.
As to `CC(=O)Nc1cccc(OCCCNC(=N)Nc2nccs2)c1` [Example 22, N-[3-(3-{[imino(1,3-thiazole-2-ylamino)methyl]amino}propoxy)phenyl]acetamide], the Ki is > 0.5 µM.
The figure for `CC(=O)c1cccc(OCCCNC(=N)Nc2nccs2)c1` [Example 23, N-[3-(3-acetylphenoxy)propyl]-N′-1,3-thiazole-2-ylguanidine (2E)-But-2-endioate] is > 0.5 µM; for `CNC(=Nc1nccs1)NCc1ccccc1OC` [Example 24, N-(2-methoxybenzyl)-N′-methyl-N″-1,3-thiazole-2-ylguanidine (2E)-But-2-endioate] it is > 0.5 µM; for `CCNC(=Nc1nccs1)NCc1ccccc1OC` [Example 26, N-ethyl-N′-(2-methoxybenzyl)-N″-1,3-thiazole-2-ylguanidine (2E)-But-2-endioate] it is > 0.5 µM.
Take `COc1cccc(OC)c1CNC(=N)Nc1nc2ccccc2s1` [Example 27, N-1,3-benzothiazole-2-yl-N′-(2,6-dimethoxybenzypguanidine (2E)-But-2-endioate]: the Ki is < 0.05 µM.
Consider `COc1ccccc1CNC(=N)Nc1nc2ccccc2s1` [Example 28, N-1,3-benzothiazole-2-yl-N′-(2-methoxybenzyl)guanidine (2E)-But-2-endioate], for which the Ki lay within 0.05 to 0.5 µM.
For `N=C(NCCOc1ccccc1Cl)Nc1nccs1` [Example 29, N-[2-(2-chlorophenoxy)ethyl]-N′-1,3-thiazole-2-ylguanidine (2E)-But-2-endioate] the value was 0.05 to 0.5 µM.
For `COc1ccccc1CNC(=N)Nc1ccsc1` [Example 30, N-(2-methoxy-benzyl)-N′-thiophene-3-yl-guanidine acetate], the Ki fell in the range of 0.05 to 0.5 µM.
On to `COc1ccccc1CNC(=N)Nc1nc(-c2ccccc2)cs1` [Example 31, N-(2-methoxybenzyl)-N′-(4-phenyl-1,3-thiazole-2-yl)guanidine], for which the Ki fell in the range of 0.05 to 0.5 µM.
Consider `COc1cccc(OC)c1CNC(=N)Nc1nc(C)cs1` [Example 32, N-(2,6-dimethoxybenzyl)-N′-(4-methyl-1,3-thiazole-2-yl)guanidine], for which the Ki was < 0.05 µM.
The figure for `COc1ccccc1CNC(=N)Nc1nc(-c2ccc3ccccc3c2)cs1` [Example 33, N-(2-methoxybenzyl)-N′-[4-(2-naphthyl)-1,3-thiazole-2-yl]guanidine] is < 0.05 µM.
On to `COc1cccc(OC)c1CNC(=N)Nc1nc(-c2ccc3ccccc3c2)cs1` [Example 34, N-(2,6-dimethoxybenzyl)-N′-[4-(2-naphthyl)-1,3-thiazole-2-yl]guanidine], for which the Ki is < 0.05 µM.
Turning to `COc1ccccc1CNC(=N)Nc1nc(-c2ccc(Cl)cc2)cs1` [Example 35, N-[4-(4-chlorophenyl)-1,3-thiazole-2-yl]-N′-(2-methoxybenzyl)guanidine], the Ki is > 0.5 µM.
For `COc1cccc(OC)c1CNC(=N)Nc1nc(C(C)(C)C)cs1` [Example 36, N-(4-tert-butyl-1,3-thiazole-2-yl)-N′-(2,6-dimethoxybenzyl)guanidine] the value was < 0.05 µM; for `COc1ccccc1CNC(=N)Nc1nc(C(C)(C)C)cs1` [Example 37, N-(4-tert-butyl-1,3-thiazole-2-yl)-N′-(2-methoxybenzyl)guanidine (2E)-But-2-endioate], 0.05 to 0.5 µM.
For `COc1cccc(OC)c1CNC(=N)Nc1nc(-c2ccc(Cl)cc2)cs1` [Example 38, N-[4-(4-chlorophenyl)-1,3-thiazole-2-yl]-N′-(2,6-dimethoxybenzyl)guanidine] the value was 0.05 to 0.5 µM.
Regarding `COc1ccccc1CNC(=N)Nc1nc(C)cs1` [Example 39, N-(2-methoxybenzyl)-N′-(4-methyl-1,3-thiazole-2-yl)guanidine (2E)-But-2-endioate], the Ki is < 0.05 µM.
For `COc1ccccc1CNC(=N)Nc1nc(C)c(C)s1` [Example 40], the Ki is < 0.05 µM.
With `COc1ccccc1CNC(=N)Nc1nc(-c2ccccn2)cs1` [Example 41, N-(2-methoxybenzyl)-N′-(4-pyridine-2-yl-1,3-thiazole-2-yl)guanidine], the Ki is < 0.05 µM.
Take `COc1cccc(OC)c1CNC(=N)Nc1nc(-c2ccccn2)cs1` [Example 42, N-(2,6-dimethoxybenzyl)-N′-(4-pyridine-2-yl-1,3-thiazole-2-yl)guanidine (2E)-But-2-endioate]: the Ki was < 0.05 µM.
Regarding `COc1ccccc1CNC(=N)Nc1nc(-c2ccccc2Cl)cs1` [Example 43, N-[4-(2-chlorophenyl)-1,3-thiazole-2-yl]-N′-(2-methoxybenzyl)guanidine (2E)-But-2-endioate], the Ki lay within 0.05 to 0.5 µM.
Turning to `COc1cccc(OC)c1CNC(=N)Nc1nc(-c2ccccc2Cl)cs1` [Example 44, N-[4-(2-chlorophenyl)-1,3-thiazole-2-yl]-N′-(2,6-dimethoxybenzyl)guanidine], the Ki is < 0.05 µM.
As to `COc1cccc(OC)c1CNC(=N)Nc1nc(-c2ccncc2)cs1` [Example 45, N-(2,6-dimethoxybenzyl)-N′-(4-pyridine-4-yl-1,3-thiazole-2-yl)guanidine], the inhibition constant Ki is < 0.05 µM.
Regarding `COc1ccccc1CNC(=N)Nc1nc(-c2ccncc2)cs1` [Example 46, N-(2-methoxybenzyl)-N′-(4-pyridine-4-yl-1,3-thiazole-2-yl)guanidine], the Ki is < 0.05 µM.
